Reference: patent US8242110B2, “Use of antihistamine agents for the preventive or early treatment of inflammatory syndromes, in particular those triggered by togaviruses” (Pierre Fabre Medicament, priority 2006, dated 2012)

Tested on: Chikungunya virus
Test: Observational study of mequitazine in preventive and early treatment of inflammatory syndromes caused by the Chikungunya virus
Type: in vivo
Details: patients
Method: Effect of Mequitazine on the Preventive and Early Treatment of Inflammatory Syndromes Caused by the Chikungunya Virus—Results of an Observational Study
104 patients were included in this observational study involving a limited number of doctors held secret: mean age 39.6 years, 61.9% female.
At the time of inclusion at D0, the patients were slightly feverish with a mean temperature of 38.4° C.
The patients consulted after various periods following the onset of hyperthermia, but generally 1.1 days after this onset, the phase preceding the onset of arthralgia.
During this first visit, the most painful joints were the fingers, wrists and ankles.
At this first visit on D0, the doctors gave mequitazine to the patients, possibly in combination with an anti-inflammatory.
A questionnaire was handed to each patient and completed with the patient.
This questionnaire included the content of 2 conventional questionnaires: • HAQ* questionnaire (Health Assessment Questionnaire) to assess the functional capacity of patients (function index) i.e. the handicap generated by the pathology; • A SF12** questionnaire to assess the quality of life of the patient using the SF12 score.
At D7 and D14 the patient again filled in these questionnaires.
At D28, at the time of a further consultation, these questionnaires were again updated. • HAQ: Bruce B and Fries J. The Stanford Health Assessment Questionnaire (HAQ): A review of its history, issues, progress and documentation. J. Rheumatol. 2003; 30(1):167-78. • SF12: Ware J Jr, Kosinski M, Keller S D. A 12-item Short-Form Health Survey: construction of scales and preliminary tests of reliability and validity. Med. Care 1996; 34:220-33.

In the case of `c1ccc2c(c1)Sc1ccccc1N2CC1CN2CCC1CC2` (centres unmarked) [mequitazine], the “handicap generated by the pathology (HAQ function index)” value (at D14, mequitazine given at D0) is reported as “statistically significant improvement”, the “handicap generated by the pathology (HAQ function index)” value (at D28, mequitazine given at D0) is reported as “statistically significant improvement” and the “number of painful joints” value (between D0 and D7, decrease continuing in time) is reported as “significant decrease”. For the same compound, the “influence of combining an anti-inflammatory with mequitazine on the SF12 physical score measuring quality of life” value (mequitazine combined with an anti-inflammatory) was “does not have an influence” and the “physical recovery (SF12 scale and HAQ test) in relation to how early mequitazine is prescribed” value (the earlier a patient consults and mequitazine is prescribed) was “the more physical recovery is swift and extensive”.
